From patent US20060004010A1, “Ccr4 antagonist and medical use thereof” (priority 2002, published 2006)

What was measured:
human CCR4 = target: T1, human CCR4 (Homo sapiens, UniProt P51679); experiment: Inhibition of MDC-induced transient Ca ion increase in CCR4/CHO cells; assay type: cell-based; settings: human CCR4 stably overexpressing CHO cell; recombinant human MDC 10 nM; read-out: IC50 value, inhibition of Ca2+ transient increase by MDC
T1 construct: expressed in transfected cells; host or cells: CHO-dhfr(-)
T1 sequence (P51679 1-360): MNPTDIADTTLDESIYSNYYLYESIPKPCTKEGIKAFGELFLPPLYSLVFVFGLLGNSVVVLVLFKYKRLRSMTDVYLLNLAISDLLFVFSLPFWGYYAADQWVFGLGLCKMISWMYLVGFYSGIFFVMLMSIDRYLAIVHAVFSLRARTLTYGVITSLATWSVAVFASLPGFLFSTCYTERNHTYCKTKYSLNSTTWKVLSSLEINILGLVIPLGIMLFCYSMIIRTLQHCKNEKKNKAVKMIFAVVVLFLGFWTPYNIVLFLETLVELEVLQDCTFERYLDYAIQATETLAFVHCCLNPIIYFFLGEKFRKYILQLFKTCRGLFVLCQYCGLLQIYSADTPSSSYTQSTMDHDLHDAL
Experimental: 1-1: Isolation of Human CCR4 Gene
Human bone marrow cell cDNA was prepared using Marathon cDNA amplification kit (manufactured by Clontech). PCR primers hCCR4XbaI-F1 (SEQ ID NO:1) and hCCR4XbaI-R1 (SEQ ID NO:2) were designed based on the sequence of GenBankX85740.
Using the human bone marrow cell cDNA as the template and using Ex Taq (manufactured by Takara), a PCR reaction (2 minutes at 95° C.→[30 seconds at 95° C., 45 seconds at 60° C., 1 minute at 72° C.]×35 times) was carried out. The thus amplified PCR product was subjected to 1% agarose gel electrophoresis, purified using QIAquick Gel Extraction Kit (manufactured by QUIAGEN) and then digested with a restriction enzyme Xbal. […]
The thus established human CCR4 stably overexpressing CHO cell (CCR4/CHO cell) was suspended in Ham's F-12 medium and FBS (10%) and dispensed into a 96-well plate at 3.0×10^4 cells/well. […] Transient increase in the intracellular Ca^2+ concentration induced by the human MDC was measured using a Ca^2+ detector for 96-well (manufactured by Hamamatsu Photonics), and inhibition ratio (%) of the test compound was calculated by the following equation: Inhibition ratio=[(Ec−Ea)/Ec]×100 • Ec: measured value of Ca^2+ transient increase by MDC; and • Ea: measured value of Ca^2+ transient increase by MDC when a test compound was added […]

TNFα = experiment: Mouse TNFα production model by LPS stimulation; assay type: in vivo; settings: mouse C57BL/6, oral, dose of 100 mg/kg, LPS 60 mg/kg i.p.
Experimental: 5-1: Mouse TNFα Production Model by LPS Stimulation
The present compound suspended in a medium, was orally applied to a mouse (male, C57BL/6), and after 0.5 hour, lipipolysaccharide (LPS, 055:B5, Sigma) was peritoneally administered to the mouse at a dose of 60 mg/kg. To the control groups was orally applied only the medium. Sixty minutes after LPS treatment, heparin-added blood collection was conducted from the abdominal vena cava under ether anesthesia, and centrifuged (12,000 r.p.m.) at 4° C. for 3 minutes, to give the plasma. The thus obtained plasma sample was stored at −80° C. before use. TNFα in the plasma was quantified using an ELISA kit (R&D systems).

[1] = tested on: leukocyte infiltration into the lung; experiment: Mouse OVA-induced asthma model; assay type: in vivo; settings: mouse C57BL/6, oral, dose of 30 mg/kg
Experimental: 3-1: Mouse OVA-Induced Asthma Model Ovalbumin (OVA, 0.2 mg/mL) and Alum (8 mg/mL) prepared in physiological saline were intraperitoneally administered (500 μL) to the mouse (male, C57BL/6) on Day 1 (test starting day) and Day 8 (1 week thereafter), to sensitize the mouse. On Days 15 to 21, the mouse was taken to an inhalation chamber (W: 240 mm×L: 240 mm×H: 120 mm), and a 2% OVA solution was sprayed with an ultrasonic wave type nebulizer (NE-U12, manufactured by Omron) for 20 minutes, to thus conduct induction. The compound of the present invention suspended in a medium, was administered orally at 30 minutes before OVA sensitization on Day 8 and at 30 minutes before OVA induction on Days 15 to 21. To the control group was administered only the medium. Three hours after OVA inhalation on Day 21, the mouse was exsanguinated, the catheter tube was inserted into the trachea, and the lung was washed with heparin-containing physiological saline (10 U/ml), to give a bronchoalveolar lavage fluid (BALF). Leukocyte number in BALF was counted using hemocyte counter (SF-3000, manufactured by Sysmex).

auricle swelling [2] = experiment: Mouse dermatitis model to which hapten is continuously applied (TNCB); assay type: in vivo; settings: mouse Balb/c, repeated TNCB, applied to ear at a concentration of 5%
Experimental: 4-2: Mouse Dermatitis Model to which Hapten is Applied
To the auricle (both sides of the right ear) of the mouse (male, Balb/c), 1% (w/v) TNCB solution (acetone:olive oil=4:1) (20 μL) was applied to conduct first sensitization. Seven days after sensitization, 1% (w/v) TNCB (acetone:olive oil=4:1) (20 μL) was applied to the mouse auricle, to conduct induction (Day 0). Furthermore, on Days 2, 4, 6, 8, 10, 12, 14 and 16, the same procedure as on Day 0 was repeated. The compound of the present invention was dissolved in a medium, applied to both sides of the right ear (20 μL) 2 hours before applying TNCB. To the control groups, was applied only the medium. Right after the administration of the compound and 24 hours after TNCB application, the thickness of the mouse auricle was measured with Dialthickness gauge (manufactured by Ozaki Seisakusho), which was used as indicator for efficacy in mouse dermatitis model to which hapten was continuously applied.

auricle swelling [3] = experiment: Mouse DTH model (TNCB); assay type: in vivo; settings: mouse Balb/c, applied to ear at a concentration of 5%, 24 hours after TNCB
Experimental: The mouse (male, Balb/c) was shaved on the abdomen with hair clippers, and to the abdomen was applied ethanol solution (100 μL) of 7% (w/v) 2,4,6-trinitrochlrobenzene (TNCB), to sensitize the mouse. Seven days after sensitization, a 1% (w/v) TNCB solution in olive oil (20 μL) was applied to the auricle of the mouse (both sides of the right ear), to conduct induction. The present compound dissolved in a medium, was applied to both sides of the right ear (20 μL) 2 hours before applying TNCB. To the control groups, was applied only the medium. Right after the administration of the compound and 24 hours after TNCB application, the thickness of the mouse auricle was measured with Dialthickness gauge (manufactured by Ozaki Seisakusho), which was used as indicator for efficacy in mouse DTH model.

CCRF-CEM cell = experiment: Inhibition of MDC-induced T cell strain (CCRF-CEM cell) migration; assay type: cell-based; settings: 4 hours
Experimental: Biological Example 2: Activity on cell migration stimulated by MDC 2-1: Inhibition tests on MDC-induced T cell strain (CCRF-CEM cell) migration A medium (0.3 mL) containing or free of MDC (20 nM, manufactured by PeproTech) was added to the lower chamber of 24-transwell plate, and further a medium (0.3 mL) containing a test compound solution of 2-fold concentration (containing 0.02% dimethylsulfoxide (DMSO)) or a medium (0.3 mL) containing DMSO only was added thereto. To the upper chamber, CCRF-CEM cell suspension prepared in 1×10^6 cells/50 μl and the test compound solution of 2-fold concentration (0.05 m]L) were added. The test was initiated by superimpose the upper chamber on the lower chamber. The chambers were incubated in a carbon gas incubator (5% CO2, 95% humidity) kept at 37° C. for 4 hours, and the cells remaining in the upper chamber were sucked up and removed. Then, 0.1 ml of a buffer (phosphate-buffered saline (PBS) containing ethylenediamine tetra-acetate sodium (EDTA) (20 μM) was added thereto, and subjected- to reaction at 4° C. for 30 minutes. The transwell plate was centrifuged (1000 r.p.m.) for 5 minutes, and the incubation liquid (600 μL) in the lower chamber was collected, and the cell number was counted using Flow Cytometer (manufactured by Becton-Dickinson). […]

Cc1ccc(S(=O)(=O)Nc2ncc(Br)nc2OCc2cccnc2)cc1 [Example 1(1), 6-bromo-2-((pyridin-3-yl)methyloxy)-3-(4-methylphenylsulfonylamino)pyrazine]
IC50 (human CCR4): 130 nM | TNFα production by LPS stimulation (plasma TNFα) (TNFα): suppressed TNFα production by LPS stimulation

COc1ccc(COc2nc(Br)cnc2NS(=O)(=O)c2ccc(C)cc2)cc1OC [Example 1(2), 6-bromo-2-((3,4-dimethoxyphenyl)methyloxy)-3-(4-methylphenylsulfonylamino)pyrazine]
IC50 (human CCR4): 16 nM

COc1ccc(COc2nc(Br)cnc2NS(=O)(=O)c2ccc(C)cc2)cc1OCCN(C)C [Example 1(3), 6-bromo-2-((3-(2-dimethylaminoethyloxy)-4-methoxyphenyl)methyloxy)-3-(4-methylphenylsulfonylamino)pyrazine]
leukocyte infiltration into the lung (leukocyte number in BALF) [1]: suppressed leukocyte infiltration into the lung | auricle swelling (auricle swelling [2]): suppressed the auricle swelling

COc1ccc(COc2nc(C)cnc2NS(=O)(=O)c2ccc(C)cc2)cc1OCCN(C)C [Example 6(1), 6-methyl-2-((3-(2-dimethylaminoethyloxy)-4-methoxyphenyl)methyloky)-3-(4-methylphenylsulfonylamino)pyrazine]
auricle swelling (auricle swelling [3]): suppressed the auricle swelling | IC50 (CCRF-CEM cell): 10 nM
